Among the data in patent publication US20050095280A1, “Single-component pH-sensitive liposomes of reduced solid-to-liquid phase transition temperatures” (Michalakis Savva, priority 2003, published 2005) are Transfection activity values, retold here.

This assay concerns B16F0 melanoma cells. Description: Transfection activity in B16F0 melanoma cells. The note with it: in the absence of helper lipid DOPE. Format: cell-based. An excerpt: FIG. 2 Transfection activity of 1,3lb3 and other commercially available cationic lipids in B16F0 melanoma cells. Lif/d stands for Lipofectamine/DOPE. The data are the average of six wells two independent experiments (n=3×2).
FIG. 3 Transfection activity of 1,3lb3 (in the absence of DOPE) -a dipalmitoyl analogue with fluid lamellar phases at physiological pH and temperature-against B16F0 tumor melanoma cells. The plasmid DNA consisted of an EGFP reporter gene driven by the SV40 early promoter, cloned into a pUC21 vector (CloneTech Labs).
FIG. 8 Transfection activity as tested by X-gal of cationic lipids against B16F0 melanoma cells in the absence of serum. The (+/−) ratio is fixed to 2. A. lb1 B. lb2 C. lb3 D. lb4 E. lb5

The structures appear in SMILES notation.

Turning to `CCCCCCCCCCCCCCCC(=O)NCC(CNC(=O)CCCCCCCCCCCCCCC)OC(=O)N(CCN(C)C)CCN(C)C` [13lb3, N,N′-dihexadecanoyl-1,3-diaminopropyl-2-carbamoyl-[bis-(2-dimethylaminoethane)]], the Transfection activity result is “efficient transfection activity”.
